Results on 23 compounds are retold here after PubChem BioAssay AID192 (DTP/NCI, 2004).

SMILES strings stand for the structures. “And” between values parts separate entries of the source, which are not always exact repeats. Identical values can stand only once. Inconclusive results and toxic doses are left out.

The experiment deals with BDF1 mice, B16 melanoma ip, median survival T/C. Description: NCI In Vivo Anticancer Drug Screen. Data for tumor model B16 Melanoma (intraperitoneal) in B6D2F1 (BDF1) mice. The conditions noted are these: endpoint: median survival time, higher = longer survival. In a few lines:
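Survival or tumor size is measured after treatment of tumor-bearing mice and normalised to the vehicle-treated control group.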

The mark [1] stands for this setting: dose: 100.0 mg/kg/injection, schedule: Q01DX009 (ip), vehicle: saline.
The mark [2] stands for this setting: dose: 200.0 mg/kg/injection, schedule: Q01DX009 (ip), vehicle: saline.
[3] abbreviates: dose: 400.0 mg/kg/injection, schedule: Q01DX009 (ip), vehicle: saline.
Where [4] appears, read: dose: 25.0 mg/kg/injection, schedule: Q01DX009 (ip), vehicle: saline with Tween-80.
Where [5] appears, read: dose: 50.0 mg/kg/injection, schedule: Q01DX009 (ip), vehicle: saline with Tween-80.
[6] abbreviates: dose: 100.0 mg/kg/injection, schedule: Q01DX009 (ip), vehicle: saline with Tween-80.
[7] abbreviates: dose: 200.0 mg/kg/injection, schedule: Q01DX009 (ip), vehicle: saline with Tween-80.
Setting [8] is: dose: 100.0 mg/kg/injection, schedule: Q01DX009 (ip), vehicle: Klucel (hydroxypropylcellulose) (HPC).
[9] abbreviates: dose: 100.0 mg/kg/injection, schedule: Q04DX003 (ip), vehicle: Klucel (hydroxypropylcellulose) (HPC).
Setting [10] is: dose: 200.0 mg/kg/injection, schedule: Q01DX009 (ip), vehicle: Klucel (hydroxypropylcellulose) (HPC).
[11] abbreviates: dose: 200.0 mg/kg/injection, schedule: Q04DX003 (ip), vehicle: Klucel (hydroxypropylcellulose) (HPC).
[12] abbreviates: dose: 400.0 mg/kg/injection, schedule: Q01DX009 (ip), vehicle: Klucel (hydroxypropylcellulose) (HPC).
Where [13] appears, read: dose: 400.0 mg/kg/injection, schedule: Q04DX003 (ip), vehicle: Klucel (hydroxypropylcellulose) (HPC).
[14] abbreviates: dose: 12.5 mg/kg/injection, schedule: Q01DX009 (ip), vehicle: saline with Tween-80.

For `Cc1cc(=O)[nH]o1`, the T/C reads like this: under setting [1], 106 % of control; under setting [2], 105 % of control; under setting [3], 99 % of control.
Take `CCCNC1=C(N2CC2)C(=O)C(NCCC)=C(N2CC2)C1=O`: under “dose: 1.25 mg/kg/injection, schedule: Q01DX009 (ip), vehicle: saline”, the T/C was 108 % of control.
For `CCOC(=O)NO`, the T/C was 100 % of control (dose: 75.0 mg/kg/injection, schedule: Q01DX009 (ip), vehicle: saline); 105 % of control (dose: 150.0 mg/kg/injection, schedule: Q01DX009 (ip), vehicle: saline); 103 % of control (dose: 300.0 mg/kg/injection, schedule: Q01DX009 (ip), vehicle: saline).
Take `CCCCCc1ccc(C(=O)O)cc1`: the T/C is, setting by setting: under setting [4], 105 % of control; under setting [5], 102 % of control; under setting [6], 111 % of control.
For `COC1(OC)C2C=CC1CC2`, the T/C reads like this: under setting [5], 97 % of control; under setting [6], 97 % of control; under setting [7], 90 % of control; (dose: 400.0 mg/kg/injection, schedule: Q01DX009 (ip), vehicle: saline with Tween-80) 96 % of control.
Consider `COc1cccc2c1C(=O)c1c(O)c3c(c(O)c1C2=O)C[C@@](O)(C(C)O)C[C@@H]3OC1CC(N2CCOCC2C#N)C(O)C(C)O1` (stereo partly drawn), for which the T/C runs as follows: (dose: 4.69 micrograms/kg/injection, schedule: Q01DX001 (ip), vehicle: water) 110 % of control; (dose: 9.37 micrograms/kg/injection, schedule: Q01DX001 (ip), vehicle: water) 115 % of control; (dose: 37.5 micrograms/kg/injection, schedule: Q01DX001 (ip), vehicle: water) 124 % of control.
Turning to `Cc1ncc(CNC(=O)N(CCCl)N=O)c(N)n1`, the T/C was 155 % of control (dose: 1.56 mg/kg/injection, schedule: Q01DX009 (ip), vehicle: suspension in saline); 193 % of control (dose: 3.12 mg/kg/injection, schedule: Q01DX009 (ip), vehicle: suspension in saline); 279 % of control (dose: 6.25 mg/kg/injection, schedule: Q01DX009 (ip), vehicle: suspension in saline); 164 % of control (dose: 12.5 mg/kg/injection, schedule: Q01DX009 (ip), vehicle: Klucel (hydroxypropylcellulose) (HPC)); 322 % of control (dose: 12.5 mg/kg/injection, schedule: Q01DX009 (ip), vehicle: suspension in saline).
`Cc1ccc(NC(=S)N(C)C)cc1Cl`: the T/C is 100 % of control under setting [8]; 104 % of control under setting [9]; 88 % of control under setting [10]; 90 % of control under setting [11]; 88 % of control under setting [12]; 95 % of control under setting [13].
With `NP(Cl)(c1ccccc1)(c1ccccc1)c1ccccc1`, the T/C was 103 % of control (dose: 0.1 mg/kg/injection, schedule: Q01DX009 (ip), vehicle: Klucel (hydroxypropylcellulose) (HPC)); 96 % of control (dose: 0.2 mg/kg/injection, schedule: Q01DX009 (ip), vehicle: Klucel (hydroxypropylcellulose) (HPC)); 100 % of control (dose: 0.39 mg/kg/injection, schedule: Q01DX009 (ip), vehicle: Klucel (hydroxypropylcellulose) (HPC)).
With `O=C(Nc1ccccc1Cl)Oc1ccc(-c2ccccc2)cc1Br`, the T/C runs as follows: under setting [9], 100 % of control; under setting [11], 103 % of control; under setting [13], 93 % of control.
As for `COc1cc(C(C)c2cc3c(cc2OCCO)OCO3)cc(OC)c1OC` (stereo not drawn), the T/C runs as follows: under setting [4], 107 % of control; under setting [5], 104 % of control; under setting [6], 110 % of control; under setting [7], 112 % of control.
Turning to `CC1(C)N=C(N)N=C(N)N1c1ccc(OCCCCNC(=O)c2ccc(S(=O)(=O)F)cc2)c(Cl)c1`, the T/C was 108 % of control under setting [14], 112 % of control under setting [4], 111 % of control under setting [5] and 112 % of control under setting [6].
Turning to `CCCCCCCCNc1cc2c3c(c1)CCCN3CCC2`, the T/C (dose: 0.75 mg/kg/injection, schedule: Q01DX009 (ip), vehicle: Klucel (hydroxypropylcellulose) (HPC)) is 88 % of control; the T/C (dose: 1.5 mg/kg/injection, schedule: Q01DX009 (ip), vehicle: Klucel (hydroxypropylcellulose) (HPC)) is 97 % of control; the T/C (dose: 6.0 mg/kg/injection, schedule: Q01DX009 (ip), vehicle: Klucel (hydroxypropylcellulose) (HPC)) is 90 % of control.
On to `C=C1C(C)C2C(Cc3ccccc3)NC(=O)C23C(OC(C)=O)C=CC(C)(O)C(=O)C(C)C/C=C/C3C1O` (stereo not drawn), for which the T/C is 103 % of control (dose: 0.63 mg/kg/injection, schedule: Q01DX009 (ip), vehicle: Klucel (hydroxypropylcellulose) (HPC)); 94 % of control and 114 % of control (dose: 1.25 mg/kg/injection, schedule: Q01DX009 (ip), vehicle: Klucel (hydroxypropylcellulose) (HPC)); 100 % of control and 114 % of control (dose: 2.5 mg/kg/injection, schedule: Q01DX009 (ip), vehicle: Klucel (hydroxypropylcellulose) (HPC)); 108 % of control and 112 % of control (dose: 5.0 mg/kg/injection, schedule: Q01DX009 (ip), vehicle: Klucel (hydroxypropylcellulose) (HPC)).
On to `OC1(c2ccccc2)c2ccc(Br)cc2-c2cc(Br)ccc21`, for which the T/C is 92 % of control under setting [6] and 88 % of control under setting [7].
For the compound `CC1C2CC3C(OC(=O)C13)C2I` (stereo not drawn), the T/C is 107 % of control under setting [6] and 89 % of control under setting [7].
`NCCS(=O)(=O)O`: the T/C is 105 % of control under setting [1]; 107 % of control under setting [2]; 110 % of control under setting [3]; 102 % of control (dose: 800.0 mg/kg/injection, schedule: Q01DX009 (ip), vehicle: saline).
For `NC(=O)c1ccccc1NC(=O)COc1ccc(Cl)cc1`, the T/C under setting [8] was 106 % of control, the T/C under setting [10] was 106 % of control and the T/C under setting [12] was 100 % of control.
In the case of `Cn1ccc(=Nc2ccc(NC(=O)c3ccc(N=c4ccn(C)c5ccc([N+](=O)[O-])cc45)cc3)cc2)cc1`, the T/C (dose: 3.13 mg/kg/injection, schedule: Q01DX009 (ip), vehicle: other) was 101 % of control; the T/C (dose: 6.25 mg/kg/injection, schedule: Q01DX009 (ip), vehicle: other) was 101 % of control; the T/C (dose: 12.5 mg/kg/injection, schedule: Q01DX009 (ip), vehicle: other) is 100 % of control; the T/C (dose: 25.0 mg/kg/injection, schedule: Q01DX009 (ip), vehicle: other) is 97 % of control.
For the compound `CC(=O)Nc1cccc([N+](=O)[O-])c1`, the T/C runs as follows: under setting [5], 109 % of control; under setting [6], 97 % of control; under setting [7], 97 % of control.
For `CC(=O)CC(=O)Nc1cc(C)c(NC(=O)CC(C)=O)cc1C`, the T/C reads like this: under setting [8], 93 % of control; under setting [10], 93 % of control.
For the compound `Cc1c(Cl)cccc1NC(=O)COc1ccc(Cl)cc1`, the T/C is, setting by setting: under setting [14], 96 % of control; under setting [4], 90 % of control; under setting [5], 88 % of control.
As for `Clc1ccc(/C=C2\c3cc(Cl)ccc3-c3c(Cl)cc(Cl)cc32)cc1`, the T/C (dose: 6.25 mg/kg/injection, schedule: Q01DX009 (ip), vehicle: saline with Tween-80) is 90 % of control.
